Numbers after ± are expanded uncertainties.
Conditions: Liquid; for speed of sound: Pulse-echo method; for mass density: Vibrating tube method

CCCCCCCCCCC [undecane]
Conditions	mass density, 1000 kPa [kg/m3]	mass density, 20000 kPa [kg/m3]	mass density, 40000 kPa [kg/m3]	mass density, 60000 kPa [kg/m3]	speed of sound, 1000 kPa [m/s]	speed of sound, 20000 kPa [m/s]	speed of sound, 40000 kPa [m/s]	speed of sound, 60000 kPa [m/s]	speed of sound, 80000 kPa [m/s]	speed of sound, 100000 kPa [m/s]
278 K	752.64 ± 1.2	764.19 ± 1.3	775.36 ± 1.4	785.14 ± 1.4	1355.2 ± 5.6	1455.4 ± 6	1547.8 ± 6.3	1629.3 ± 6.6	1702.6 ± 6.9	1770.5 ± 7.2
288 K	745.18 ± 1.2	757.29 ± 1.3	768.82 ± 1.4	778.9 ± 1.4	1315 ± 5.4	1419.1 ± 5.8	1514.4 ± 6.2	1598 ± 6.5	1673 ± 6.8	1742.4 ± 7.1
298 K	737.58 ± 1.2	750.5 ± 1.3	762.53 ± 1.3	773.01 ± 1.4	1275.2 ± 5.2	1383.2 ± 5.7	1481.3 ± 6.1	1566.9 ± 6.4	1643.4 ± 6.7	1714.4 ± 7
308 K	729.86 ± 1.2	743.8 ± 1.3	756.47 ± 1.3	767.47 ± 1.4	1236.3 ± 5.1	1348.6 ± 5.5	1449.8 ± 5.9	1537.3 ± 6.3	1615.1 ± 6.6	1687.2 ± 6.9
318 K	722.02 ± 1.2	737.19 ± 1.2	750.63 ± 1.3	762.26 ± 1.4	1197.9 ± 4.9	1314.1 ± 5.4	1418.4 ± 5.8	1508.1 ± 6.2	1587.7 ± 6.5	1661.4 ± 6.8

Source: the NIST ThermoML archive (doi:10.1016/j.jct.2012.10.025)
